The source of these data is patent US11873291B2, “Quinoline cGAS antagonist compounds” (ImmuneSensor Therapeutics, Inc., priority 2020, dated 2024).

Read-outs that look alike come from different tables or passages of the source.

The target of experiment [1] is T1, recombinant human cGAS (aa147-522) (Homo sapiens, UniProt Q8N884).
T1 construct: recombinant human cGAS (aa147-522); His6-SUMO (cleaved yes); made in house; host or cells: E. coli BL21/pLys
Put plainly: In vitro inhibition assay of cGAS activity (ATP consumption, KinaseGlo Max). It counts as biochemical. Put shortly:
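De-tagged recombinant human cGAS (aa147-522, 1.5 μg/mL) was incubated 20 min at 37 °C with herring testis DNA, 6.6 μM ATP and 0.1 mM GTP in Tris pH 7.5/MgCl2 buffer plus serial compound dilutions. Remaining ATP was read by KinaseGlo Max luminescence, and IC50 was fitted from % ATP consumption versus log concentration.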
For orientation: In Kinase-Glo more light means more ATP remaining.

In experiment [2] the test system is cGAS activity in Reporter THP1 cell line. Put plainly: Cellular assay to measure cGAS activity: ISRE-Gaussia luciferase reporter THP1 cells transfected with ISD. The following applies: Homo sapiens. It counts as cell-based. As for the experimental part:
Cellular assay to measure cGAS activity: Reporter THP1 cell line harboring a gene encoding Gaussia Luciferase under the control of 5 tandem repeats of interferon-stimulated response elements (ISRE) fused to an ISG54 minimal promoter was used to test inhibition of cGAS activity by synthetic compounds in human cells. These cells were plated on 96-well plates at 0.3×10^6/well and incubated with serial dilutions of compounds or DMSO for 5 min, followed by transfection of 2 μg/mL of ISD (Interferon Stimulatory DNA, a 45 bp DNA oligo) or mock transfected using lipofectamine 2000 (Life Technology) method, according to manufacturer's instructions. 16 hours later, 15 μL of the media from each well was transferred to a new plate, 50 μL of solution containing 50 mM Hepes-NaOH, pH 6.5, 50 mM NaCl, 10 mM EDTA, 1 μM of coelenterazine was added to each well and luminescence was measured immediately. Fold increase in luminescence compared to mock transfection was plotted against concentrations of each compound, and IC50 is calculated using Graphpad. To evaluate the specificity of a compound, the same procedure was performed except that cells were transfected with 2 μg/mL poly(I:C) or infected with Sendai Virus (SeV) at 50 Unit/mL, which are known to activate the RIG-I-MAVS pathway. A specific inhibitory compound should inhibit interferon induction by DNA but have minimal effect on poly(I:C) or Sendai virus induced interferon reporter gene expression.
The letter codes for cGAS IC50 include: A (<2 μM); B (2-10 μM); C (>10 μM).
(Reporter assays use an easily measured gene product as a stand-in for the process of interest.)

[3] abbreviates: Table 3, read-out: cGAS Inhibition Results IC50.
Where [4] appears, read: THP-1, untitled table after Table 4 (continuation).
[5] abbreviates: Table 2, read-out: cGAS Inhibition Results IC50.
The mark [6] stands for this setting: THP-1, Table 4, Gaussia luciferase.

T1 sequence (Q8N884 147-522): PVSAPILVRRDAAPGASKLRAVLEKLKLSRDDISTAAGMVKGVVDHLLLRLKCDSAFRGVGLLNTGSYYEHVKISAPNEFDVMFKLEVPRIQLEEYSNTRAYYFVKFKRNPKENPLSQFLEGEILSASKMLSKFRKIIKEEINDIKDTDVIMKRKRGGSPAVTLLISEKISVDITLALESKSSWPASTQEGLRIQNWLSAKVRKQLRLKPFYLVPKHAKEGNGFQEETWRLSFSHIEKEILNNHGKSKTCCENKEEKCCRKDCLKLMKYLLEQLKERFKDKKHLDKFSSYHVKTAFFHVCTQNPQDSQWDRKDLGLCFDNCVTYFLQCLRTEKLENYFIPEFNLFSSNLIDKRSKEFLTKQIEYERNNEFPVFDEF

As a reminder, the IC50 is the midpoint of a concentration-inhibition curve. Take `O=C(O)[C@@H]1[C@H](CO)CCN1c1cc(-n2ccnc2)c2ccc(Cl)c(Cl)c2n1` (racemic) [I-782, 1-(7,8-dichloro-4-(1H-imidazol-1-yl)quinolin-2-yl)-3-(hydroxymethyl)pyrrolidine-2-carboxylic acid]: the half-maximal inhibitory concentration (IC50) in experiment [1] (setting [3]) is less than 2 µM; in experiment [2] (setting [4]) it was greater than 10 µM.
`O=C(O)CCOC[C@@H]1[C@@H]2CC2CN1c1cc(-n2ccnc2)c2ccc(Cl)c(Cl)c2n1` (stereo in doubt) [I-809] came in with an IC50 in experiment [2] (setting [4]) of less than 2 µM.
Regarding `COc1ccc(-c2cc(-n3ccnc3)c3ccc(Cl)cc3n2)cc1C(=O)O` [I-15], the IC50 in experiment [1] (setting [5]) is less than 2 µM; in experiment [2] (setting [6]), greater than 10 µM.
For `COc1cc(C(=O)O)cc(-c2cc(-n3ccnc3)c3ccc(Cl)cc3n2)c1` [I-24, 3-(7-chloro-4-(1H-imidazol-1-yl)quinolin-2-yl)-5-methoxybenzoic acid], in that order: less than 2 µM and 2 to 10 µM.
As for `COc1ccc(-c2cc(-n3ccnc3)c3ccc(Cl)c(Cl)c3n2)cc1C(=O)O` [I-39], the IC50 in experiment [1] (setting [5]) is less than 2 µM; in experiment [2] (setting [6]) it was 2 to 10 µM.
With `O=C1CN(c2cc(-n3ccnc3)c3ccc(Cl)c(Cl)c3n2)CCCN1` [I-86], the IC50 is less than 2 µM in experiment [1] (setting [5]) and 2 to 10 µM in experiment [2] (setting [6]).
For `O=C(O)C1COCCN1c1cc(-n2ccnc2)c2ccc(Cl)c(Cl)c2n1` (stereo not drawn) [I-92], in that order: less than 2 µM and greater than 10 µM.
As for `NS(=O)(=O)C1CCCN(c2cc(-n3ccnc3)c3ccc(Cl)c(Cl)c3n2)C1` (stereo not drawn) [I-116], the IC50 is less than 2 µM in experiment [1] (setting [5]) and 2 to 10 µM in experiment [2] (setting [6]).
As for `OC[C@@H]1CCCN1c1cc(-n2ccnc2)c2ccc(Cl)c(Cl)c2n1` [I-139], the IC50 in experiment [1] (setting [5]) was less than 2 µM; in experiment [2] (setting [6]) it was 2 to 10 µM.
With `NS(=O)(=O)CC1CCN(c2cc(-n3ccnc3)c3ccc(Cl)c(Cl)c3n2)C1` (stereo not drawn) [I-149], the IC50 in experiment [1] (setting [5]) was less than 2 µM; in experiment [2] (setting [6]), greater than 10 µM.
Regarding `NS(=O)(=O)CCNc1cc(-n2ccnc2)c2ccc(Cl)c(Cl)c2n1` [I-200], the IC50 in experiment [1] (setting [5]) and in experiment [2] (setting [6]) was less than 2 µM in each case.
Turning to `O=C(O)[C@@H]1C[C@@H](F)CN1c1cc(-n2ccnc2)c2ccc(Cl)c(Cl)c2n1` [I-322], the values for the IC50 in experiment [1] (setting [5]) and in experiment [2] (setting [6]) were less than 2 µM and greater than 10 µM, respectively.
In experiment [2] (setting [6]), `O=C(O)C1CC[C@H](c2ccccc2)N1c1cc(-n2ccnc2)c2ccc(Cl)c(Cl)c2n1` (stereo partly drawn) [I-487] registered an IC50 of 2 to 10 µM.
As to `O=P(O)(O)CCOC[C@@H]1CCCN1c1cc(-n2ccnc2)c2ccc(Cl)c(Cl)c2n1` [I-763, (S)-(2-((1-(7,8-dichloro-4-(1H-imidazol-1-yl)quinolin-2-yl)pyrrolidin-2-yl)methoxy)ethyl)phosphonic acid], the IC50 in experiment [1] (setting [3]) was less than 2 µM.
The same measure, in the same setting: next, `O=C(O)CO[C@@H]1CCN(c2cc(-n3ccnc3)c3ccc(Cl)c(Cl)c3n2)C1` [I-766]: less than 2 µM; `O=C(O)CCO[C@@H]1CCN(c2cc(-n3ccnc3)c3ccc(Cl)c(Cl)c3n2)C1` [I-767]: 2 to 30 µM; `COC(=O)CO[C@@H]1CCN(c2cc(-n3ccnc3)c3ccc(Cl)c(Cl)c3n2)C1` [I-768]: 2 to 30 µM.
`COC(=O)CCO[C@@H]1CCN(c2cc(-n3ccnc3)c3ccc(Cl)c(Cl)c3n2)C1` [I-769]: the IC50 in experiment [1] (setting [3]) lay within 2 to 30 µM.
Consider `O=C(O)CO[C@H]1CCN(c2cc(-n3ccnc3)c3ccc(Cl)c(Cl)c3n2)C1` [I-770], for which, in experiment [1] (setting [3]), the IC50 is less than 2 µM.
In the case of `O=C(O)CCO[C@H]1CCN(c2cc(-n3ccnc3)c3ccc(Cl)c(Cl)c3n2)C1` [I-771], the IC50 in experiment [1] (setting [3]) lay in the range of 2 to 30 µM.
On the same count and under the same terms, next, `O=C(O)CCOC[C@H]1CCN(c2cc(-n3ccnc3)c3ccc(Cl)c(Cl)c3n2)C1` [I-772]: 2 to 30 µM.
Consider `O=C(O)[C@@H]1CC[C@@H](CCO)N1c1cc(-n2ccnc2)c2ccc(Cl)c(Cl)c2n1` [I-783, (2S,5S)-1-(7,8-dichloro-4-(1H-imidazol-1-yl)quinolin-2-yl)-5-(2-hydroxyethyl)pyrrolidine-2-carboxylic acid], for which, in experiment [1] (setting [3]), the IC50 is less than 2 µM.
Consider `O=C(O)CCOC[C@H]1CCCCN1c1cc(-n2ccnc2)c2ccc(Cl)c(Cl)c2n1` [I-790], for which the IC50 in experiment [1] (setting [3]) was 2 to 30 µM.
With `O=C(O)CCOC[C@@H]1CCC(=O)N1c1cc(-n2ccnc2)c2ccc(Cl)c(Cl)c2n1` [I-812, (S)-3-((1-(7,8-dichloro-4-(1H-imidazol-1-yl)quinolin-2-yl)-5-oxopyrrolidin-2-yl)methoxy)propanoic acid], in experiment [1] (setting [3]), the IC50 was less than 2 µM.
With `O=C(O)CCOC(C(=O)O)[C@@H]1CCCN1c1cc(-n2ccnc2)c2ccc(Cl)c(Cl)c2n1` (stereo partly drawn) [I-818], in experiment [1] (setting [3]), the concentration for half-maximal inhibition (IC50) lay in the range of 2 to 30 µM.
Regarding `O=C(O)C#CC[C@@H]1CCCN1c1cc(-n2ccnc2)c2ccc(Cl)c(Cl)c2n1` [I-819, (S)-4-(1-(7,8-dichloro-4-(1H-imidazol-1-yl)quinolin-2-yl)pyrrolidin-2-yl)but-2-ynoic acid], in experiment [1] (setting [3]), the IC50 is less than 2 µM.
Consider `O=C(O)CCOC[C@@H]1CCCN1c1cc(N2CC[C@@H](O)C2)c2ccc(Cl)c(Cl)c2n1` [I-821, 3-(((S)-1-(7,8-dichloro-4-((R)-3-hydroxypyrrolidin-1-yl)quinolin-2-yl)pyrrolidin-2-yl)methoxy)propanoic acid], for which the IC50 in experiment [1] (setting [3]) was greater than 30 µM.
The same measure, in the same setting: for `Nc1ccc(-c2cc(N3CCC[C@H]3COCCC(=O)O)nc3c(Cl)c(Cl)ccc23)cn1` [I-822, (S)-3-((1-(4-(6-aminopyridin-3-yl)-7,8-dichloroquinolin-2-yl)pyrrolidin-2-yl)methoxy)propanoic acid] the value was greater than 30 µM; for `O=C(O)CCOC[C@@H]1CCCN1c1cc(-c2cc[nH]n2)c2ccc(Cl)c(Cl)c2n1` [I-823], greater than 30 µM; for `O=C(O)CCOC[C@@H]1CCCN1c1cc(-c2ccoc2)c2ccc(Cl)c(Cl)c2n1` [I-824], greater than 30 µM.
Turning to `Cc1cn(-c2cc(N3CCC[C@H]3COCCC(=O)O)nc3c(Cl)c(Cl)ccc23)cn1` [I-825, (S)-3-((1-(7,8-dichloro-4-(4-methyl-1H-imidazol-1-yl)quinolin-2-yl)pyrrolidin-2-yl)methoxy)propanoic acid], the IC50 in experiment [1] (setting [3]) was greater than 30 µM.
`Cn1cc(-c2cc(N3CCC[C@H]3COCCC(=O)O)nc3c(Cl)c(Cl)ccc23)cn1` [I-826]: in experiment [1] (setting [3]), the IC50 was greater than 30 µM.
With `O=C(O)CCOC[C@@H]1CCCN1c1ccc2ccc(Cl)c(Cl)c2n1` [I-827], in experiment [1] (setting [3]), the IC50 was greater than 30 µM.
For the molecule `CN(CCCOc1ccc(Cl)cc1C(=O)O)c1cc(-n2ccnc2)c2ccc(Cl)c(Cl)c2n1` [I-847], the concentration for half-maximal inhibition (IC50) in experiment [1] (setting [3]) was in the range of 2 to 30 µM.
As for `CC(C)N(CCCOc1ccc(Cl)cc1C(=O)O)c1cc(-n2ccnc2)c2ccc(Cl)c(Cl)c2n1` [I-848, 5-chloro-2-(3-((7,8-dichloro-4-(1H-imidazol-1-yl)quinolin-2-yl)(isopropyl)amino)propoxy) benzoic acid], in experiment [1] (setting [3]), the IC50 fell in the range of 2 to 30 µM.
As to `COc1ccc(OCCCN(c2cc(-n3ccnc3)c3ccc(Cl)c(Cl)c3n2)C(C)C)c(C(=O)O)c1` [I-849], in experiment [1] (setting [3]), the IC50 fell in the range of 2 to 30 µM.
Turning to `CC(C)N(CCCOc1cccc(F)c1C(=O)O)c1cc(-n2ccnc2)c2ccc(Cl)c(Cl)c2n1` [I-850], the IC50 in experiment [1] (setting [3]) is 2 to 30 µM.
As to `CC(C)N(CCCOc1ccncc1C(=O)O)c1cc(-n2ccnc2)c2ccc(Cl)c(Cl)c2n1` [I-851], in experiment [1] (setting [3]), the IC50 lay in the range of 2 to 30 µM.
On the same count and under the same terms, for `CC(C)N(CCCOc1ccccc1C(=O)O)c1cc(-n2ccnc2)c2ccc(Cl)c(Cl)c2n1` [I-852] the value was 2 to 30 µM.
On to `CC(C)(C)c1ccc2c(-n3ccnc3)cc(N3CCC[C@H]3COCCC(=O)O)nc2c1` [I-858], for which the IC50 in experiment [1] (setting [3]) was greater than 30 µM.
For the molecule `COc1cccc2c(-c3cn[nH]c3)cc(N3CCC[C@H]3COCCC(=O)O)nc12` [I-859], the IC50 in experiment [1] (setting [3]) is 2 to 30 µM.
Consider `CCOc1c(Cl)ccc2c(-n3ccnc3)cc(N3CCC[C@H]3COCCC(=O)O)nc12` [I-861], for which the IC50 in experiment [1] (setting [3]) is greater than 30 µM.
On the same count and under the same terms, for `O=C(O)CCOC[C@@H]1CCCN1c1cc(-n2ccnc2)c2ccc(Cl)c(-c3ccccc3)c2n1` [I-863, (S)-3-((1-(7-chloro-4-(1H-imidazol-1-yl)-8-phenylquinolin-2-yl)pyrrolidin-2-yl)methoxy)propanoic acid] the value was greater than 30 µM; for `COC(=O)[C@@H]1C[C@@H](OCCC(=O)O)CN1c1cc(-n2ccnc2)c2ccc(Cl)c(Cl)c2n1` [I-869], 2 to 30 µM; for `COC(=O)[C@@H]1[C@@H](OCCC(=O)O)CCN1c1cc(-n2ccnc2)c2ccc(Cl)c(Cl)c2n1` [I-870], 2 to 30 µM.
The same measure, in the same setting: next, `COC(=O)[C@@H]1C[C@H](OCCC(=O)O)CN1c1cc(-n2ccnc2)c2ccc(Cl)c(Cl)c2n1` [I-871]: 2 to 30 µM.
Still for that read-out and setting: next, `O=C(O)CCOCC(CO)Nc1cc(-n2ccnc2)c2ccc(Cl)c(Cl)c2n1` (stereo not drawn) [I-873]: less than 2 µM.
As to `O=C(O)CCOCC(COCCC(=O)O)Nc1cc(-n2ccnc2)c2ccc(Cl)c(Cl)c2n1` [I-874], in experiment [1] (setting [3]), the IC50 was less than 2 µM.
Turning to `O=C(O)Cc1csc(CNc2cc(-n3ccnc3)c3ccc(Cl)c(Cl)c3n2)n1` [I-881], the IC50 in experiment [1] (setting [3]) was less than 2 µM.
